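Method: 48-hour compound exposure of cells in 96-well plates, five concentrations, linear interpolation of endpoints. Here, GI50 denotes the concentration required for 50% inhibition of growth.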 Calls of active or inactive are those of the source. No stated cut-off is given here; in the data, active = GI50 up to about 1.1 µM and inactive = higher.
Tests used:
Assay in all cases: NCI-60 cell line screen, 48 h
MDA-MB-231 = test system: MDA-MB-231
OVCAR-5 = test system: OVCAR-5
SF-539 = test system: SF-539
SN12C = test system: SN12C
HCT-116 = test system: HCT-116
RXF 393 = test system: RXF 393
COLO 205 = test system: COLO 205
BT-549 = test system: BT-549
OVCAR-3 = test system: OVCAR-3
M14 = test system: M14
U-251 = test system: U-251
UACC-257 = test system: UACC-257
EKVX = test system: EKVX
MDA-MB-435 = test system: MDA-MB-435
OVCAR-8 = test system: OVCAR-8
SK-OV-3 = test system: SK-OV-3
MDA-N = test system: MDA-N
TK-10 = test system: TK-10
IGROV-1 = test system: IGROV-1
CCRF-CEM = test system: CCRF-CEM
DU-145 = test system: DU-145
MCF7 = test system: MCF7
SW-620 = test system: SW-620
NCI/ADR-RES = test system: NCI/ADR-RES
SNB-19 = test system: SNB-19
SK-MEL-28 = test system: SK-MEL-28
NCI-H460 = test system: NCI-H460
UACC-62 = test system: UACC-62
KM12 = test system: KM12
RPMI-8226 = test system: RPMI-8226
A498 = test system: A498
LOX IMVI = test system: LOX IMVI
CAKI-1 = test system: CAKI-1
A549 = test system: A549
OVCAR-4 = test system: OVCAR-4
HOP-62 = test system: HOP-62
HT-29 = test system: HT-29
SK-MEL-2 = test system: SK-MEL-2
HOP-92 = test system: HOP-92
NCI-H23 = test system: NCI-H23
SK-MEL-5 = test system: SK-MEL-5
SNB-75 = test system: SNB-75
Malme-3M = test system: Malme-3M
ACHN = test system: ACHN
UO-31 = test system: UO-31
K562 = test system: K562
SF-268 = test system: SF-268
Hs-578T = test system: Hs-578T
T47D = test system: T47D
NCI-H522 = test system: NCI-H522
SF-295 = test system: SF-295
786-0 = test system: 786-0
HL-60 = test system: HL-60
PC-3 = test system: PC-3
NCI-H226 = test system: NCI-H226
HCT-15 = test system: HCT-15
MOLT-4 = test system: MOLT-4
HCC 2998 = test system: HCC 2998

Measured: GI50

CC(=O)c1csc2c1C(=O)c1scc(C(C)=O)c1C2=O
active: MDA-MB-231 0.348 µM | OVCAR-3 0.231 µM | UACC-257 0.942 µM | MDA-MB-435 0.188 µM | MDA-N 0.176 µM | CCRF-CEM 0.5 µM | NCI-H460 1.03 µM | RPMI-8226 0.944 µM | OVCAR-4 0.587 µM | K562 0.74 µM | T47D 0.323 µM | NCI-H522 0.52 µM | HL-60 0.112 µM | MOLT-4 0.347 µM
inactive: OVCAR-5 1.98 µM | SF-539 1.82 µM | SN12C 1.7 µM | HCT-116 2.15 µM | RXF 393 2.13 µM | COLO 205 1.97 µM | BT-549 1.75 µM | M14 1.63 µM | U-251 1.43 µM | EKVX 1.89 µM | OVCAR-8 1.54 µM | SK-OV-3 2.22 µM | TK-10 2.54 µM | IGROV-1 1.57 µM | DU-145 1.87 µM | MCF7 1.38 µM | SW-620 1.94 µM | NCI/ADR-RES 1.61 µM | SNB-19 1.8 µM | SK-MEL-28 1.97 µM | UACC-62 1.98 µM | KM12 1.73 µM | A498 1.54 µM | LOX IMVI 1.41 µM | CAKI-1 2.22 µM | A549 1.97 µM | HOP-62 1.8 µM | HT-29 2.28 µM | SK-MEL-2 1.89 µM | HOP-92 2 µM | NCI-H23 1.37 µM | SK-MEL-5 1.44 µM | SNB-75 2.03 µM | Malme-3M 1.49 µM | ACHN 1.68 µM | UO-31 2 µM | SF-268 1.47 µM | Hs-578T 2.74 µM | SF-295 1.66 µM | 786-0 2.05 µM | PC-3 2.84 µM | NCI-H226 2.25 µM
1.62 µM: HCT-15

Cc1cc2[nH]c3c(C#N)c4c(c(=O)n3c2cc1C)CCCC4
inactive: MDA-MB-231 > 100 µM | OVCAR-5 18.7 µM | SF-539 > 100 µM | SN12C > 100 µM | HCT-116 > 100 µM | COLO 205 > 100 µM | BT-549 > 100 µM | OVCAR-3 > 100 µM | M14 14.5 µM | U-251 40.2 µM | UACC-257 > 100 µM | EKVX > 100 µM | MDA-MB-435 67.3 µM | OVCAR-8 > 100 µM | SK-OV-3 14.1 µM | MDA-N 87.9 µM | TK-10 > 100 µM | IGROV-1 > 100 µM | CCRF-CEM > 100 µM | DU-145 > 100 µM | MCF7 > 100 µM | SW-620 > 100 µM | NCI/ADR-RES > 100 µM | SNB-19 31 µM | SK-MEL-28 > 100 µM | NCI-H460 > 100 µM | UACC-62 > 100 µM | KM12 > 100 µM | A498 > 100 µM | LOX IMVI > 100 µM | CAKI-1 > 100 µM | A549 > 100 µM | OVCAR-4 > 100 µM | HT-29 > 100 µM | SK-MEL-2 > 100 µM | HOP-92 87.7 µM | NCI-H23 > 100 µM | SK-MEL-5 32.6 µM | Malme-3M > 100 µM | ACHN 72.1 µM | UO-31 > 100 µM | K562 64.9 µM | SF-268 79.3 µM | Hs-578T 86.1 µM | T47D > 100 µM | NCI-H522 > 100 µM | SF-295 16 µM | 786-0 > 100 µM | HL-60 96.6 µM | HCC 2998 > 100 µM | PC-3 > 100 µM | NCI-H226 > 100 µM | MOLT-4 > 100 µM
> 100 µM: HCT-15

COc1ccc2cc3c4cc5c(cc4cc[n+]3cc2c1OC)OCO5
inactive: MDA-MB-231 23.4 µM | OVCAR-5 47.5 µM | SF-539 11.4 µM | SN12C 2.52 µM | HCT-116 15.1 µM | RXF 393 24.4 µM | COLO 205 2.08 µM | BT-549 1.63 µM | OVCAR-3 3.87 µM | M14 15.2 µM | UACC-257 6.46 µM | EKVX 6.22 µM | MDA-MB-435 6.95 µM | OVCAR-8 2.37 µM | SK-OV-3 29.4 µM | MDA-N 7.52 µM | TK-10 19.9 µM | IGROV-1 8.11 µM | CCRF-CEM 6.43 µM | DU-145 30.3 µM | MCF7 20 µM | SW-620 5.27 µM | NCI/ADR-RES > 100 µM | SNB-19 3.15 µM | SK-MEL-28 5.33 µM | NCI-H460 17.9 µM | UACC-62 12.3 µM | KM12 2.88 µM | RPMI-8226 8.13 µM | A498 > 100 µM | LOX IMVI 28.4 µM | A549 18.3 µM | OVCAR-4 20.6 µM | HOP-62 5.6 µM | HT-29 26.3 µM | SK-MEL-2 22.8 µM | HOP-92 18.1 µM | NCI-H23 8.09 µM | SK-MEL-5 3.39 µM | SNB-75 27.8 µM | Malme-3M 4.83 µM | ACHN 38.4 µM | UO-31 36.3 µM | K562 16.6 µM | SF-268 2.94 µM | Hs-578T 3.26 µM | T47D 17.4 µM | NCI-H522 3.63 µM | SF-295 5.53 µM | 786-0 10.2 µM | HL-60 19.2 µM | HCC 2998 22 µM | PC-3 14.2 µM | NCI-H226 26.4 µM | MOLT-4 8.53 µM
83.2 µM: HCT-15
active: U-251 0.615 µM
